Measurements published in the CheMixHub viscosity set.

Assay: xn = mol fraction of the nth substance listed

CCn1cc[n+](C)c1.O=S(=O)([O-])C(F)(F)F + CC1COC(=O)O1
101 kPa
Conditions	viscosity [mPa·s]
298.15 K, x1 = 0.6987	21.65
303.15 K, x1 = 0.0999	3.915
303.15 K, x1 = 0.1999	5.315
303.15 K, x1 = 0.6987	18.45
308.15 K, x1 = 0.1999	4.575
313.15 K, x1 = 0.3998	6.675
318.15 K, x1 = 0.8998	17.65
323.15 K, x1 = 0.0999	2.425
323.15 K, x1 = 0.3998	5.115

CCOC(=O)CC + CCCCCC
303.15 K, 101 kPa
Conditions	viscosity [mPa·s]
x1 = 0.1832	0.2997
x1 = 0.3971	0.3276
x1 = 0.4989	0.3451
x1 = 0.5988	0.3661
x1 = 0.8005	0.4138

Cc1ccccc1O + c1ccccc1
viscosity [mPa·s]
Conditions	298.15 K	308.15 K	318.15 K	323.15 K
101 kPa, x1 = 0.1176	–	0.641	–	–
101 kPa, x1 = 0.2203	–	0.7752	–	–
101 kPa, x1 = 0.3357	–	0.9753	–	–
101 kPa, x1 = 0.4352	–	1.164	–	–
101 kPa, x1 = 0.5693	–	1.535	–	–
101 kPa, x1 = 0.6728	–	2.109	–	–
101 kPa, x1 = 0.7757	–	2.775	–	–
101 kPa, x1 = 0.896	–	3.774	–	–
101.33 kPa, x1 = 0.1	0.704	0.609	0.531	0.497
101.33 kPa, x1 = 0.2	0.849	0.727	0.623	0.578
101.33 kPa, x1 = 0.4	1.319	1.073	0.894	0.815
101.33 kPa, x1 = 0.5	1.661	1.334	1.084	0.981
101.33 kPa, x1 = 0.6	2.148	1.668	1.331	1.186
101.33 kPa, x1 = 0.8	3.874	2.766	2.067	1.807

O=C1OCCO1 + COC(=O)OC
viscosity [mPa·s], 101.3 kPa
Conditions	x2 = 0.0802	x2 = 0.166	x2 = 0.2441	x2 = 0.3467	x2 = 0.4421	x2 = 0.5442	x2 = 0.6512	x2 = 0.761	x2 = 0.8513
298.15 K	2.043	1.83	1.656	1.452	1.285	1.127	0.983	0.854	0.761
313.15 K	1.688	1.506	1.357	1.184	1.042	0.91	0.789	0.682	0.604

CCCCCOC(C)=O + Cc1cccc(O)c1
Conditions	viscosity [mPa·s]
298.15 K, 101 kPa, x2 = 0.5	1.167

C=CC(=O)OC + C1CCOC1
viscosity [mPa·s], 101 kPa
Conditions	293.15 K	298.15 K	303.15 K	308.15 K	313.15 K	318.15 K
x2 = 0.0773	0.4982	0.4567	0.4181	0.3852	0.3553	0.3283
x2 = 0.1554	0.4934	0.454	0.4172	0.3854	0.3561	0.3294
x2 = 0.2064	0.4907	0.4527	0.4169	0.3858	0.3569	0.3304
x2 = 0.2545	0.4885	0.4517	0.417	0.3865	0.3579	0.3315
x2 = 0.3215	0.486	0.4508	0.4174	0.3878	0.3596	0.3333
x2 = 0.3989	0.4838	0.4505	0.4186	0.3898	0.362	0.3358
x2 = 0.4655	0.4826	0.4507	0.4201	0.392	0.3644	0.3382
x2 = 0.53	0.4819	0.4515	0.422	0.3945	0.3671	0.3409
x2 = 0.6023	0.4819	0.453	0.4246	0.3977	0.3706	0.3442
x2 = 0.6834	0.4826	0.4553	0.4282	0.4018	0.3748	0.3483
x2 = 0.7632	0.4841	0.4583	0.4323	0.4064	0.3795	0.3528
x2 = 0.8468	0.4865	0.4622	0.4372	0.4118	0.3849	0.3579
x2 = 0.9316	0.4899	0.467	0.4429	0.4177	0.3909	0.3634

CCCCCC + CCCO
viscosity [mPa·s]
Conditions	298.15 K	308.15 K
100 kPa, x1 = 0.0603	1.619	–
100 kPa, x1 = 0.0992	1.44	–
100 kPa, x1 = 0.2086	1.07	–
100 kPa, x1 = 0.4056	0.6737	–
100 kPa, x1 = 0.5016	0.5493	–
100 kPa, x1 = 0.5979	0.4564	–
100 kPa, x1 = 0.7014	0.3861	–
100 kPa, x1 = 0.8029	0.3467	–
100 kPa, x1 = 0.9039	0.3116	–
100 kPa, x1 = 0.9486	0.3029	–
100 kPa, x2 = 0.0679	0.3219	0.2901
100 kPa, x2 = 0.1319	0.3383	0.3038
100 kPa, x2 = 0.2357	0.3688	0.3515
100 kPa, x2 = 0.3681	0.4378	0.3916
100 kPa, x2 = 0.4848	0.5309	0.4635
100 kPa, x2 = 0.5884	0.6557	0.5724
100 kPa, x2 = 0.6811	0.8015	0.6603
100 kPa, x2 = 0.7644	0.998	0.8293
100 kPa, x2 = 0.8398	1.172	0.9551
100 kPa, x2 = 0.9083	1.427	1.177
100 kPa, x2 = 0.9708	1.762	1.427
101.33 kPa, x2 = 0.1148	0.34	–
101.33 kPa, x2 = 0.1407	0.345	–
101.33 kPa, x2 = 0.2154	0.369	–
101.33 kPa, x2 = 0.3704	0.451	–
101.33 kPa, x2 = 0.5278	0.603	–
101.33 kPa, x2 = 0.6309	0.75	–
101.33 kPa, x2 = 0.7618	1.038	–
101.33 kPa, x2 = 0.8626	1.349	–
101.33 kPa, x2 = 0.9594	1.756	–

C=CC(=O)OC + CCCCC(C)O
viscosity [mPa·s], 101 kPa
Conditions	298.15 K	308.15 K
x1 = 0.05507	3.631	2.614
x1 = 0.1	3.287	2.387
x1 = 0.1554	2.908	2.136
x1 = 0.1998	2.636	1.953
x1 = 0.2554	2.331	1.746
x1 = 0.2999	2.112	1.596
x1 = 0.3554	1.868	1.428
x1 = 0.3999	1.693	1.305
x1 = 0.4555	1.497	1.167
x1 = 0.4999	1.357	1.067
x1 = 0.5554	1.2	0.954
x1 = 0.5999	1.088	0.872
x1 = 0.6551	0.963	0.781
x1 = 0.7	0.872	0.713
x1 = 0.755	0.772	0.638
x1 = 0.7998	0.699	0.583
x1 = 0.8555	0.618	0.522
x1 = 0.8999	0.56	0.477
x1 = 0.9555	0.495	0.426

CCCCCOC(C)=O + ClC(Cl)Cl
303.15 K, 101.3 kPa
Conditions	viscosity [mPa·s]
x1 = 0.0995	0.5918
x1 = 0.2017	0.6667
x1 = 0.2998	0.725
x1 = 0.3984	0.7678
x1 = 0.5049	0.7991
x1 = 0.5912	0.8048
x1 = 0.7005	0.8002
x1 = 0.8153	0.7844
x1 = 0.8911	0.7722
